Laboratory results reported in patent US20090117155A1, “TREATMENT OF HIV-1 BY MODULATION OF VPR ACTIVATION OF THE M-CSF PROMOTER” (priority 2006, published 2009).

Tests used:
M-CSF promoter = M-CSF promoter luciferase reporter (pGL3-M-CSF) in primary human macrophages; assay type: cell-based
Procedure: (§1) Peripheral blood mononuclear cells (PBMC) were isolated from heparinized whole blood or buffy coats acquired from healthy seronegative blood donors by density-gradient centrifugation (Histopaque-1017, Sigma-Aldrich, St. Louis, Mo.). CD14+ monocytes were isolated from prepared PBMC using the Miltenyi AutoMACS system (Miltenyi Biotec, Auburn, Calif.). Briefly, cells were incubated with anti-CD14 monoclonal antibody-coated microbeads (Miltenyi Biotec, Auburn, Calif.) at 4° C. for 15 minutes and run on an AutoMacs separator. […] Recovered CD14+ monocytes were used immediately in transfection experiments. For macrophage preparation, PBMC were incubated in RPMI 1640 (Invitrogen, Carlsbad, Calif.) containing 20% FBS, 10% human AB serum, 2 mM L-glutamine and penicillin (50 U/ml)/streptomycin (50 μg/ml) overnight at 37° C. Adherent cells were washed 3 times with phosphate-buffered saline (PBS), removed with cold PBS 0.02% EDTA and differentiated into macrophages for 6 days in DMEM supplemented with 10% human AB serum and 2 mM L-glutamine. THP1 cells were cultivated in RPMI 1640 supplemented with 10% FBS, 2 mM L-glutamine and penicillin (50 U/ml)/streptomycin (50 μg/ml) (=complete medium).
The M-CSF promoter (−1310/+48 bp) was amplified from human genomic DNA by PCR with the primers 5′-[…]-3′ (SEQ ID NO: 20) and 5′-[…] […]-3′ (SEQ ID NO: 21). […] Amplification consisted of 30 cycles of 30 s at 94° C., 30 s at 58° C., and 6 min at 72° C. All the constructs were verified by sequencing (Nucleic Acid Facility, Jefferson University, PA USA).
(§2) THP1 cells (2×106/transfection) were transiently transfected with Effecten reagent (Qiagen, Santa Clara, Calif.) using 1 μg of plasmid DNA, 8 μl enhancer and 10 μl effectene. Cells were incubated in complete medium for 24 hours in 6-well plates. Human primary CD 14+ cells were transfected using the Human Monocyte Nucleofector Kit (Amaxa, Gaithersburg, Md.) according to the manufacturer's instructions. Briefly, 5×10^6 CD 14+ cells were resuspended in 100 μl of nucleofector solution (Amaxa) with 5 μg of DNA and electroporated using the program Y-001. Cells were then transferred in 1.5 ml of Human Monocyte Nucleofector medium (Amaxa) in 24-well plates for 24 hours. Human macrophages were transfected using the Human Macrophage Nucleofector Kit (Amaxa) according to the manufacturer's specifications. In brief, 0.5×10^6 macrophages were resuspended in 100 μl of nucleofector solution (Amaxa) with 5 μg of DNA and electroporated using the program Y-010. Cells were incubated for 24 hours in advanced RPMI (Invitrogen, Carlsbad, Calif.) supplemented with 10% FBS and 2 mM L-glutamine in 12-well plates. One day after transfection, cells were harvested by centrifugation and cell pellets were resuspended in 200 μl of lysis buffer (Promega). Twenty microliters of cell lysate was assayed for luciferase activity using the Luciferase Assay System (Promega). The protein concentration was determined with the BCA Protein Assay Reagent (Pierce, Rockford, Ill.) and the luciferase activity was expressed in Relative Light Unit (RLU) per μg of protein.

M-CSF = M-CSF production in culture supernatants of primary human macrophages (ELISA); assay type: cell-based
Procedure: as §1, §2
M-CSF and IL-6 production in cell culture supernatants were assessed by ELISA according to the manufacturer's instructions (R&D systems, Minneapolis, Minn.).

HIV-1 LTR = conditions: Schafer et al., 2006; cited from earlier work
HIV-1 = conditions: Schafer et al., 2006; cited from earlier work
mammary tumorigenesis = conditions: Bcra1/p53-deficient mice, Poole et al., 2006; cited from earlier work
[1] = concentrations as high as 100 μM, in the absence of Vpr
[2] = primary macrophages co-transfected with pGL3-M-CSF and Vpr vector

IL-6: cytokine IL-6 used to treat primary macrophages for 24 hours
M-CSF transcription (M-CSF promoter; primary macrophages treated for 24 hours): 50.1±0.4 RLU/μg of protein

CC#C[C@]1(O)CC[C@H]2[C@@H]3CCC4=CC(=O)CCC4=C3[C@@H](c3ccc(N(C)C)cc3)C[C@@]21C [RU486, mifepristone]
inhibition at 20 µM (M-CSF promoter; Homo sapiens, Primary macrophage, 20 μM, primary macrophages co-transfected with pGL3-M-CSF and Vpr vector, read-out: inhibition of Vpr-dependent M-CSF promoter activity): > 50% | effect on basal level of M-CSF promoter activity (M-CSF promoter; [1]): did not completely inhibit | effect on Vpr-dependent M-CSF promoter activity (M-CSF promoter; [2]): dose-dependent decrease | inhibition of the Vpr effect on M-CSF production (M-CSF; 50 μM, primary macrophages co-transfected with pGL3-M-CSF and Vpr vector): total inhibition | inhibition at 10 µM (M-CSF; Homo sapiens, Primary macrophage, 10 μM, primary macrophages co-transfected with pGL3-M-CSF and Vpr vector, read-out: inhibition of Vpr induced M-CSF production): > 50% | effect on basal level M-CSF production (M-CSF; [1]): did not completely inhibit | concentration required for inhibition of M-CSF induction by Vpr (M-CSF; primary human macrophages): approximately 10 μM | effect on Vpr-dependent M-CSF production (M-CSF; [2]): dose-dependent decrease | Vpr-induced transactivation of the HIV-1 LTR (HIV-1 LTR): inhibits | viral replication in PBMCs (HIV-1): inhibits | mammary tumorigenesis (mammary tumorigenesis): prevent mammary tumorigenesis

CC(=O)[C@H]1CC[C@H]2[C@@H]3CCC4=CC(=O)CC[C@]4(C)[C@H]3CC[C@]12C [progesterone]
effect on M-CSF promoter activity (M-CSF promoter; primary macrophages transfected with pGL3-M-CSF, different concentrations, no Vpr): no increase
